In EP4567032A1, “KIF18A INHIBITOR COMPOUND, AND PHARMACEUTICAL COMPOSITION AND PREPARATION METHOD THEREFOR AND USE THEREOF” (Changchun Genescience Pharmaceutical Co., Ltd., priority 2022, dated 2024):

Each molecule was assayed on OVCAR-3 cells (assay: imaging-based nuclear count analysis (NCA) in OVCAR-3 cells). Conditions: Homo sapiens, 96 h, cultured 4 days, Hoechst 33342 nuclear count, 0.1% DMSO.
Type: cell-based
Procedure: Test name: imaging-based nuclear count analysis (NCA) in OVCAR-3 cells
• a) When the cell confluence reached 80%-90%, the cells were treated. • b) The cells were resuspended in a medium and then counted and diluted at a desired density. • c) A cell suspension containing appropriate cells was added to the 384-well plate at 30 µL/well: 600 cells/well.
• a) 30 µL of 8% fixative (final concentration 4%) was added and the plate was incubated at room temperature for 30 min. • b) The plate was centrifuged at 1000RPM for 30s. • c) The plate was washed twice with 60 µl/well PBS. • d) After immobilization, the cells were permeabilized and stained in 60 µL of a wash buffer containing 2 µg/mL Hoechst 33342 DNA dye (1% BSA, 0.2% Triton X-100, 1X PBS). • e) The plate was sealed and incubated at room temperature in the dark for 1 h. • f) It was washed with PBS 3 times. • g) 50µLPBS/well was added and the plate was scanned using HCS. • h) Data acquisition and detection
High-reading control wells: cells + 30 nL DMSO; low-reading control wells: 10 µM AM-5308.
IC50 (nM) was calculated using GraphPad Prism 8 software and the effect-dose curves of the compound were plotted. Table 1 Bioactivity data of the compound of the present application
Molecule `O=C(Nc1cccc2ccccc12)c1ccc(NS(=O)(=O)CCO)cc1N1CCC2(CC1)CC2` [Compound 2, 2-{6-azaspiro[2.5]octan-6-yl}-4-(2-hydroxyethanesulfonylamino) -N-(naphthalen-1-yl)benzamide] has an IC50 of 568 nM. For `Cc1ccc2c(NC(=O)c3ccc(NS(=O)(=O)CCO)cc3N3CCC4(CC3)CC4)cccc2c1` [Compound 4, 2-{6-azaspiro[2.5]octan-6-yl}-4-(2-hydroxyethanesulfonylamino) -N-(6-methylnaphthalen-1-yl)benzamide], the IC50 was 478 nM. With `O=C(Nc1cccc2cc(Cl)ccc12)c1ccc(NS(=O)(=O)CCO)cc1N1CCC2(CC1)CC2` [Compound 5, {6-azaspiro[2.5]octan-6-yl}-N-(6-chloronaphthalen-1-yl)-4-(2-hydroxyethanesulfonylamino) benzamide] the IC50 was 369 nM. `O=C(Nc1cccc2ccc(F)cc12)c1ccc(NS(=O)(=O)CCO)cc1N1CCC2(CC1)CC2` [Compound 6, 2-{6-azaspiro[2.5]octan-6-yl}-N-(7-fluoronaphthalen-1-yl)-4-(2-hydroxyethanesulfonylamino) benzamide] was tested, and the IC50 was 976 nM. With `O=C(Nc1cccc2cc(C(F)(F)F)ccc12)c1ccc(NS(=O)(=O)CCO)cc1N1CCC2(CC1)CC2` [Compound 7, 2-{6-azaspiro[2.5]octan-6-yl}-4-(2-hydroxyethanesulfonylamino) -N-(6-(trifluoromethyl)naphthalen-1-yl)benzamide] the IC50 was 458 nM. With `O=C(Nc1cccc2c1CCC1(CCCC1)C2)c1ccc(NS(=O)(=O)CCO)cc1N1CCC2(CC1)CC2` [Compound 51, 2-{6-azaspiro[2.5]octan-6-yl}-N-{3',4'-dihydro-1'H-spiro[cyclopentane-1,2'-naphthalen]-5'-yl}-4-(2-hydroxyethanesulfonylamino)benzamide] the IC50 was 258 nM. With `O=C(Nc1cccc2c1CCC1(CC1)C2)c1ccc(NS(=O)(=O)CCO)cc1N1CCC2(CC1)CC2` [Compound 56, 2-{6-azaspiro[2.5]octan-6-yl}-N-{3',4'-dihydro-1'H-spiro[cyclopropane-1,2'-naphthalen]-5'-yl}-4-(2-hydroxyethanesulfonylamino)benzamide] the IC50 was 73.1 nM. `Cc1cc(NC(=O)c2ccc(NS(=O)(=O)CCO)cc2N2CCC3(CC2)CC3)nc2c1nc1n2CC(F)(F)CC1` [Compound 64, N-(8,8-difluoro-4-methyl-pyrido[2,3-d]imidazo[1,2-a]piperidin-2-yl)-4-(2-hydroxyethanesulfonylamino)-2-(6-azaspiro[2.5]octan-6-yl)benzamide] was tested, and the IC50 was 763 nM. `O=C(Nc1cccc2c1nc1n2CCC1(F)F)c1ccc(NS(=O)(=O)CCO)cc1C1=CCC2(CC1)CC2` [Compound 90, N-(3,3-difluoro-2,3-dihydro-1H-benzo[d]pyrrolo[1,2-a]imidazol-5-yl)-4-(2-hydroxyethanesulfonylamino)-2-(spiro[2.5]oct-5-en-6-yl)benzamide] showed an IC50 of 71.2 nM. `COc1ccc2c(NC(=O)c3ccc(NS(=O)(=O)CCO)cc3N3CCC4(CC3)CC4)ccnc2c1` [Compound 95] gave an IC50 of 98.9 nM. In the case of `Cc1cc(NC(=O)c2ccc(NS(=O)(=O)CCO)cc2N2CCC3(CC2)CC3)c2nc3n(c2c1)[C@H]1CC[C@@H]3C1` [Compound 99, 4-(2-hydroxyethanesulfonylamino)-N-((1S,4R)-8-methyl-1,2,3,4-tetrahydro-1,4-methylenebenzo[4,5]imidazo[1,2-a]pyridin-6-yl)-2-(6-azaspiro[2.5]octan-6-yl)benzamide], the IC50 is reported as 109 nM. `CC1CCn2c1nc1c(NC(=O)c3ccc(NS(=O)(=O)CCO)cc3N3CCC4(CC3)CC4)cccc12` (centres unmarked) [Compound 106, 4-(2-hydroxyethanesulfonylamino) -N-(3-methyl-2,3-dihydro-1H-benzo[d]pyrrolo[1,2-a]imidazol-5-yl)-2-(6-azaspiro[2.5]octan-6-yl)benzamide] gave an IC50 of 125 nM. `O=C(Nc1cccc2c1nc1n2CCCCC1)c1ccc(NS(=O)(=O)CCO)cc1C1=CCC2(CC1)CC2` [Compound 108, 4-(2-hydroxyethanesulfonylamino) -2-(spiro[2.5]oct-5-en-6-yl)-N-(7,8,9,10-tetrahydro-6H-benzo[4,5]imidazo[1,2-a]azepin-4-yl)benzamide] showed an IC50 of 183 nM. `O=C(Nc1cccc2c1oc1ccccc12)c1ccc(NS(=O)(=O)CCO)cc1N1CCC2(CC1)CC2` [Compound 111, N-(dibenzo[b,d]furan-4-yl)-4-(2-hydroxyethanesulfonylamino)-2-(6-azaspiro[2.5]octan-6-yl)benzamide] showed an IC50 of 161 nM. In the case of `O=C(Nc1ccnc2cc(C3CC3)ccc12)c1ccc(NS(=O)(=O)CCO)cc1N1CCC2(CC1)CC2` [Compound 112, 2-{6-azaspiro[2.5]octan-6-yl}-N-(7-cyclopropylquinolin-4-yl)-4-(2-hydroxyethylsulfonylamino)benzamide], the IC50 is reported as 117 nM. `O=C(Nc1cc(F)cc2c1nc1n2[C@H]2CC[C@@H]1C2)c1ccc(NS(=O)(=O)CCO)cc1N1CCC2(CC1)CC2` [Compound 113a, N-((1S,4R)-8-fluoro-1,2,3,4-tetrahydro-1,4-methylenebenzo[4,5]imidazo [1,2-a]pyridin-6-yl)4-(2-hydroxyethanesulfonylamino) -2-(6-azaspiro[2.5]octan-6-yl)benzamide] showed an IC50 of 97.9 nM.

Same assay, conditions: cultured 4 days, Hoechst 33342 nuclear count, 0.1% DMSO
Molecule `O=C(Nc1cccc2c1nc1n2C2CCC1CC2)c1ccc(NS(=O)(=O)CCO)cc1N1CCC2(CC1)CC2` [Compound 100, 4-(2-hydroxyethanesulfonylamino)-2-(6-azaspiro[2.5]octan-6-yl)-N-(1,2,3,4-tetrahydro-1,4-ethylbenzo[4,5]imidazo[1,2-a]pyridin-6-yl)benzamide] has an IC50 of 110 nM.
